In general, IC50 refers to the concentration at which inhibition is half-maximal.

Experiment [1] addresses T1, S-phase kinase associated protein 2 (Skp2) (Homo sapiens, UniProt P61024+Q13309).
T1 construct: GST-Skp2/Skp1; with Skp1; Cks1 (His6-Cks1)
Briefly: HTRF Skp2/Skp1-Cks1 binding inhibition assay; also CETSA of Skp2 in SGC-7901 cells. Background: In TR-FRET formats the signal depends on donor and acceptor labels being close together.

Experiment [2] deals with T1, S-phase kinase associated protein 2 (Skp2). Briefly: HTRF Skp2/Skp1-Cks1 binding inhibition assay.

The structures appear in SMILES notation.

T1 sequence (Q13309 whole entry): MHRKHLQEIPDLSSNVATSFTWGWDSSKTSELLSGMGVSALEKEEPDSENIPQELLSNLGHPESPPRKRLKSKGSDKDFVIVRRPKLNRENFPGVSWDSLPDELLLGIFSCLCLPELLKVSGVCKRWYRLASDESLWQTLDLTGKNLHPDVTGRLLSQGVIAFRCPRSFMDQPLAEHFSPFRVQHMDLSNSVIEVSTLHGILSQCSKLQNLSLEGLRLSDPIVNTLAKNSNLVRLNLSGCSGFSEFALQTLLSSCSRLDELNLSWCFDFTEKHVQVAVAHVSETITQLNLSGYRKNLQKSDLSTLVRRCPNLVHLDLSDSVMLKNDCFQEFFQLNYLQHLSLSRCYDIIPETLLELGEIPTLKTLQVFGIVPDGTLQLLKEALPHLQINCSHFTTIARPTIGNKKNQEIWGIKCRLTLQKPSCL
T1 sequence (P61024 2-79): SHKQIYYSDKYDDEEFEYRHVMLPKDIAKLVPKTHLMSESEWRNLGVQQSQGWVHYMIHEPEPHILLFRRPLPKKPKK
T1 sequence (P63208 2-163 partner): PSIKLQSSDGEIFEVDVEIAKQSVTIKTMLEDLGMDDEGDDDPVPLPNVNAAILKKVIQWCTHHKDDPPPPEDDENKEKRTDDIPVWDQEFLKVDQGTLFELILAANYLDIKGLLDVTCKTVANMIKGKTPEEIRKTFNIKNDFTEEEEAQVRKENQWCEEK

`Cc1ccc(S(=O)(=O)Nc2cccc3cccnc23)cc1` [Skp2-2]: the IC50 in experiment [1] came to 27.8 ± 1.44 µM.
With `C=CC(=O)Nc1cccc(-c2nnc(SCc3ccccc3)n2C)c1` [SYK-031], the IC50 in experiment [1] amounted to 2.14 ± 0.76 µM.
For the compound `COC(=O)c1ccc(CCc2cc(O)ccc2O)cc1` [Skp2-1, NSC681152], the IC50 in experiment [2] is 58.7 ± 1.62 µM.

Values taken from publication PMC8548536, “Establishment of high-throughput screening HTRF assay for identification small molecule inhibitors of Skp2-Cks1” (Scientific Reports, 2021).
